# Test results as given in ChEMBL document CHEMBL1138819, “Synthesis and biological evaluation of pteridine and pyrazolopyrimidine based adenosine kinase inhibitors” (Bioorg Med Chem Lett, 2004).
# Target: Adenosine kinase (Homo sapiens, UniProt P55263)
# Test: In vitro inhibitory concentration against Adenosine kinase in cycstolic assay
# Sequence of Adenosine kinase (P55263 whole entry): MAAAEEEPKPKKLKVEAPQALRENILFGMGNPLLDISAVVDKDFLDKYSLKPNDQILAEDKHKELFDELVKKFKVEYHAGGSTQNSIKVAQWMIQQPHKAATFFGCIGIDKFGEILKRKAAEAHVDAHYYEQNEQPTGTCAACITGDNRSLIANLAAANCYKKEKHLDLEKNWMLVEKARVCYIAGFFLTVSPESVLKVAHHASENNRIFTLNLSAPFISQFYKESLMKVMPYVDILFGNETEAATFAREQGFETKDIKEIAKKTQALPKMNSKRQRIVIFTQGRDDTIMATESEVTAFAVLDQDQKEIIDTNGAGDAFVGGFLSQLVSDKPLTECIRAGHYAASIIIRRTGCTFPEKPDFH
row,SMILES,IC50
1,CN(Cc1ccccc1)c1c(N)ncnc1C#Cc1ccc(N2CCOCC2)nc1,30 nM
2,Cn1nc(-c2cccc(Br)c2)c2c(C#Cc3ccc(N4CCOCC4)nc3)ncnc21,82 nM
3,Nc1ncnc2nc(-c3ccc(N4CCOCC4)nc3)cnc12,460 nM
4,Brc1cccc(-c2[nH]nc3ncnc(C#Cc4ccc(N5CCOCC5)nc4)c23)c1,22 nM
5,Brc1cccc(-c2nn(Cc3ccccc3)c3ncnc(C#Cc4ccc(N5CCOCC5)nc4)c23)c1,> 1000 nM
6,c1ccc2c(CCNc3ncnc4nc(-c5ccc(N6CCOCC6)nc5)cnc34)c[nH]c2c1,300 nM
7,CN(C)c1ccc(C#Cc2[nH]cnc3nnc(-c4cccc(Br)c4)c2-3)cn1,75 nM
8,c1ccc(CCCCNc2ncnc3nc(-c4ccc(N5CCOCC5)nc4)cnc23)cc1,82 nM
9,Nc1ncnc2cc(-c3ccc(N4CCOCC4)nc3)n(Cc3ccccc3)c12,> 1000 nM
10,c1ccc(CCNc2ncnc3nc(-c4ccc(N5CCOCC5)nc4)cnc23)cc1,120 nM
11,CN(C)c1ccc(C#Cc2ncnc3c2c(-c2cccc(Br)c2)nn3C)cn1,7.5 nM
12,CN(C)c1ccc(C#Cc2ncnc3n[nH]c(-c4ccccc4)c23)cn1,100 nM
13,c1ccc(CCCNc2ncnc3nc(-c4ccc(N5CCOCC5)nc4)cnc23)cc1,72 nM
14,Nc1ncnc(C#Cc2ccc(N3CCOCC3)nc2)c1Cc1cccc(Br)c1,22 nM
